Results published in PubChem BioAssay (NCI).
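Five compound concentrations were applied to cells in 96-well plates for 48 hours; endpoints were derived by simple linear interpolation of the resulting dose-response curve. GI50 is the concentration that inhibits growth by half. TGI marks complete inhibition of growth.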

Tests used:
Assay in all cases: growth of human tumour cells (NCI), 48 h
MALME-3M melanoma = system: MALME-3M melanoma
SK-MEL-28 melanoma = system: SK-MEL-28 melanoma
MDA-MB-435 = system: MDA-MB-435
SK-OV-3 ovarian = system: SK-OV-3 ovarian
OVCAR-4 ovarian = system: OVCAR-4 ovarian
NCI-H460 lung = system: NCI-H460 lung
UACC-257 melanoma = system: UACC-257 melanoma
KM12 colon = system: KM12 colon
UACC-62 melanoma = system: UACC-62 melanoma
HL-60(TB) leukemia = system: HL-60(TB) leukemia

c1cc2ccc1CNCCN1CCNCc3ccc(cc3)Oc3ccc(cc3)CNCCN(CCNCc3ccc(cc3)O2)CCNCc2ccc(cc2)Oc2ccc(cc2)CNCC1 was tested, and the GI50 (MALME-3M melanoma) was 1660 nM, the TGI (MALME-3M melanoma) was 3130 nM and the GI50 (SK-MEL-28 melanoma) was 1750 nM. It also gave a TGI (SK-MEL-28 melanoma) of 3210 nM, a GI50 (MDA-MB-435) of 1360 nM and a TGI (MDA-MB-435) of 2700 nM. The GI50 (SK-OV-3 ovarian) was 1720 nM, the TGI (SK-OV-3 ovarian) was 3150 nM and the GI50 (OVCAR-4 ovarian) was 1790 nM. It also gave a TGI (OVCAR-4 ovarian) of 3340 nM, a GI50 (NCI-H460 lung) of 1710 nM and a TGI (NCI-H460 lung) of 3270 nM. It also gave a GI50 (UACC-257 melanoma) of 1800 nM, a TGI (UACC-257 melanoma) of 3400 nM and a GI50 (KM12 colon) of 1770 nM. The TGI (KM12 colon) was 3220 nM, the GI50 (UACC-62 melanoma) was 1660 nM and the TGI (UACC-62 melanoma) was 3100 nM. For the same molecule, the GI50 (HL-60(TB) leukemia) was 503 nM and the TGI (HL-60(TB) leukemia) was 2020 nM.
